Test results published in patent US10322165B2, “TIFA antagonists and their use for treating diseases” (ACADEMIA SINICA, priority 2017, dated 2019).

Columns and labels:
[1] = system: U937 cells; experiment: WST-1 viability of cytarabine-treated U937 cells; assay type: cell-based; conditions: 5 μg/mL etanercept, 50 nM bortezomib, or 1 μM ABT-263 together with 10 μM cytarabine
Description: (§1) A total of 10^5 suspension cells under indicated condition were seeded per well in 96-well plates and cell viability was analyzed at the indicated time point post treatment.

[2] = system: MCF-7 (breast cancer cells); experiment: WST-1 cytotoxicity of anti-cancer treatments with or without TIFA silencing; assay type: cell-based; conditions: 4th day, Sorafenib 5 μM, Cisplatin 5 μM, Etoposide 10 μM, IR 5Gy
Description: (§2) For transient transfection of 293T cells, 6×10^5 cells were transfected with 2 μg of indicated plasmid DNA using Jet-PEI (Polyplus Transfection) for 48 h (pCDNA3.1 vector, HA-tagged TIFA, and pNF-κB-Luc) or 24 h (Flag-tagged Aurora A) according to the manufacturer's instruction. For transient transfection of U937 cells, 10^6 suspension cells were transfected with 3 μg of the pNF-κB-Luc plasmid DNA using Lipofectamine 2000 (Invitrogen) for 48 h according to the manufacturer's instruction. To silence specific genes, 6×10^5293T cells or 10^6 suspension cells were transfected with 30 pmol (293T cells) or 50 pmol (suspension cells) of indicated siRNA supplemented with 9 or 15 μL of Lipofectamine RNAiMAX (Invitrogen) in the presence of Opti-MEM (Invitrogen) according to the manufacturer's instruction. Six hours after primary transfection, cells were incubated with the regular medium for 24 h, and the secondary siRNA transfection was performed with the same protocol. Cells or conditional media were collected after 72 h of incubation.
as §1
(§3) Cytotoxicity of cells at the 4th day was normalized to treatment without TIFA silencing and presented.

[3] = system: acute lymphoblastic leukemia (ALL) line Jurkat and CML line K562; experiment: WST-1 viability assay, proliferation of ALL and CML lines; assay type: cell-based
Description: (§4) To silence specific genes, 6×10^5293T cells or 10^6 suspension cells were transfected with 30 pmol (293T cells) or 50 pmol (suspension cells) of indicated siRNA supplemented with 9 or 15 μL of Lipofectamine RNAiMAX (Invitrogen) in the presence of Opti-MEM (Invitrogen) according to the manufacturer's instruction. Six hours after primary transfection, cells were incubated with the regular medium for 24 h, and the secondary siRNA transfection was performed with the same protocol. Cells or conditional media were collected after 72 h of incubation.
as §1

[4] = system: NF-κB; experiment: Luciferase reporter assay and western blot for NF-κB activity; assay type: cell-based; conditions: for TNF-α-dependent NF-κB activation and elevations of NF-κB signaling factors: U937 cells stably expressing the fragment, 10 ng/mL TNF-α for 30 min
Description: After 5 repeated freeze-thaw cycles, cell extracts were cleared by centrifugation at 4° C. Cell extracts were quantified using Bradford assay, and equal amounts of soluble proteins were mixed with SDS sample buffer, boiled, separated by SDS-PAGE, and blotted onto PVDF membranes (Millipore). Membranes were then blocked for 1 h with 5% dry milk in PBST (PBS supplemented with 0.1% Tween-20) buffer and incubated for overnight at 4° C. with primary antibody diluted in PBST containing 1% bovine serum albumin (Sigma). After three washes with PBST, membranes were incubated with HRP-conjugated anti-mouse or anti-rabbit IgG. […] All western blot analyses were performed independently at least three times except that of primary PBMCs.
Luciferase-based NF-κB reporter assay was conducted as previously described (20). A total of 6×10^5 293T or 10^6 suspension U937 Cells in one well of 6-well plates with indicated conditions were transiently transfected with 2 μg of pNF-κB-Luc reporter plasmid for 48 h before harvest. Cells were treated with 10 ng/mL TNF-α (R&D Systems) for 30 min and lysed with 1× passive lysis buffer (Promega). 100 μg of cell lysates was dispensed into a well of 96-well plate, followed by addition of 100 μL of luciferase assay buffer LARII (Promega) and 100 μL of Stop & Glo reagent (Promega). The triplicated chemiluminescence were measured by SpectraMax Paradigm Multi-Mode Plate Reader (Molecular Devices) and normalized to corresponding β-actin level from a parallel western blot analysis of cell lysates. Results were represented as relative luminescence units (RLU) from three independent experiments.

[5] = system: AML cell lines HL-60, KG-1, THP-1, and U937; experiment: WST-1 viability assay, growth of AML lines; assay type: cell-based; conditions: WST-1, time course after TIFA silencing
Description: as §4, §1

[6] = system: AML PBMCs; experiment: WST-1 viability and chemosensitivity of freshly isolated AML PBMCs; assay type: cell-based, human; conditions: TIFA silencing
Source text: Hela, 293T, and HL-60 cell lines were obtained from Dr. Li-Jung Juan of Academia Sinica (Taipei, Taiwan, 2014), KG-1 cell line was obtained from Prof. Shih-Lan Hsu of Taichung Veterans General Hospital (Taichung, Taiwan, 2015), and the rest of cell lines were obtained from Dr. Shui-Tein Chen of Academia Sinica (Taipei, Taiwan, 2015). All cell lines were expanded and stored in liquid nitrogen when received. Original vials were thawed for these experiments and authenticated simultaneously by STR DNA fingerprinting using the Promega GenePrint® 10 System and analyzed by ABI PRISM 3730 GENETIC ANALYZER and GeneMapper® softeware. All resulting SI R profiles were matched with known ATCC fingerprints (ATCC.org). Maintenance of respective cell lines followed our previous protocols (20,27,28). 293T and HeLa cells were maintained in Dulbecco's modified Eagle's medium (DMEM, Gibco). […] All media were supplemented with 10% decomplemented fetal bovine serum (FBS, Gibco), […] L-glutamine (Gibco), 100 U/mL penicillin (Gibco) and 100 μg/mL streptomycin (Gibco). All cells were incubated in a humidified atmosphere at 37° C. with 5% CO2. To isolate human PBMCs, freshly acquired whole bloods were layered over Ficoll (GE healthcare) as previously described (28). Isolated primary cells were maintained according to a previously described protocol (29) and subjected to experimental analyses within two weeks. […]

[7] = system: J5 (liver cancer cells); experiment: WST-1 cytotoxicity of anti-cancer treatments with or without TIFA silencing; assay type: cell-based; conditions: 4th day, Sorafenib 5 μM, Cisplatin 5 μM, Etoposide 10 μM, IR 5Gy
Description: as §2, §1, §3

[8] = system: HeLa (cervical cancer cells); experiment: as above; conditions: 4th day, Sorafenib 5 μM, Cisplatin 5 μM, Etoposide 10 μM, IR 5Gy
Description: as §2, §1, §3

[9] = system: AML lines (HL-60, KG-1, THP-1, U937); experiment: WST-1 based survival test, IC50 of chemo drugs in AML lines; assay type: cell-based; conditions: all four tested AML lines; siTIFA vs control siRNA
[10] = system: NTera2 (testicular embryonic carcinoma); experiment: WST-1 cytotoxicity of anti-cancer treatments with or without TIFA silencing; assay type: cell-based; conditions: 4th day, Sorafenib 5 μM, Cisplatin 5 μM, Etoposide 10 μM, IR 5Gy
Description: as §2, §1, §3

[11] = system: H446 (lung cancer cells); experiment: as above; conditions: 4th day, Sorafenib 5 μM, Cisplatin 5 μM, Etoposide 10 μM, IR 5Gy
Description: as §2, §1, §3

[12] = system: THP-1 (leukaemia cells); experiment: as above; conditions: 4th day, Sorafenib 5 μM, Cisplatin 5 μM, Etoposide 10 μM, IR 5Gy
Description: as §2, §1, §3

[13] = system: HepG2 (liver cancer cells); experiment: as above; conditions: 4th day, Sorafenib 5 μM, Cisplatin 5 μM, Etoposide 10 μM, IR 5Gy
Description: as §2, §1, §3

[14] = system: K562 (leukaemia cells); experiment: as above; conditions: 4th day, Sorafenib 5 μM, Cisplatin 5 μM, Etoposide 10 μM, IR 5Gy
Description: as §2, §1, §3

[15] = system: Jurkat (leukaemia cells); experiment: as above; conditions: 4th day, Sorafenib 5 μM, Cisplatin 5 μM, Etoposide 10 μM, IR 5Gy
Description: as §2, §1, §3

[16] = system: MDA-MB-231 (breast cancer cells); experiment: as above; assay type: cell-based; conditions: 4th day, Sorafenib 5 μM, Cisplatin 5 μM, Etoposide 10 μM, IR 5Gy
Description: as §2, §1, §3

[17] = system: U2OS (osteosarcoma cells); experiment: as above; conditions: 4th day, Sorafenib 5 μM, Cisplatin 5 μM, Etoposide 10 μM, IR 5Gy
Description: as §2, §1, §3

[18] = system: A549 (lung cancer cells); experiment: as above; conditions: 4th day, Sorafenib 5 μM, Cisplatin 5 μM, Etoposide 10 μM, IR 5Gy
Description: as §2, §1, §3

[19] = system: U937 cells; experiment: Cytokine antibody array and ELISA of secreted cytokines; assay type: cell-based; conditions: 10 μM cytarabine, conditioned media
Description: Condition media from equal numbers of cultured U937 cells were collected at 72 h post indicated treatments and assessed by the Human Cytokine Array C1 according to the manufacturer's instruction (AAH-CYT-1, RayBiotech). Data were acquired using the ImageJ software and normalized to the positive controls. When indicated, the amounts of secreted cytokines and chemokines in the conditional mediums were determined by the enzyme-linked immunosorbent assay (ELISA) test kit following the manufacturer's instructions (R&D Systems). The absorbances of triplicated samples were read by SpectraMax Paradigm Plate Reader (Molecular Devices).

[20] = biological target: T1, endogenous TIFA (Homo sapiens, UniProt Q96CG3); experiment: Immunoprecipitation of lysates from transduced U937 cells; assay type: binding; conditions: U937 cells stably expressing Myc-tagged fragment; anti-Myc immunobeads, western blot
T1 construct: endogenous in cells; host or cells: U937 cells (retrovirally transduced with Myc-tagged TIFA fragments)
T1 sequence (Q96CG3 1-184): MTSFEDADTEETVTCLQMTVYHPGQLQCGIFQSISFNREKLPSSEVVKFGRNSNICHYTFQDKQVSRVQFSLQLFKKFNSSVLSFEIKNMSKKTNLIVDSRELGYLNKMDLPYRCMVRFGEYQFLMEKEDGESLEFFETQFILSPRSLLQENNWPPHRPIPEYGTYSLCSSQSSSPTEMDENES

**Q.** etanercept was tested. Which “cytotoxicity of cytarabine-treated U937 cells” value [1] did it give?
**A.** The value was “enhanced the cytotoxicity”.

**Q.** With `CNC(=O)c1cc(Oc2ccc(NC(=O)Nc3ccc(Cl)c(C(F)(F)F)c3)cc2)ccn1` [Sorafenib, sorafenib] as the molecule, how does the “fold change of cytotoxicity (cytotoxicity of TIFA silencing/cytotoxicity of non-silencing)” value [2] read?
**A.** The value was 1.47 fold changes.

**Q.** `CC1(C)CCC(c2ccc(Cl)cc2)=C(CN2CCN(c3ccc(C(=O)NS(=O)(=O)c4ccc(N[C@H](CCN5CCOCC5)CSc5ccccc5)c(S(=O)(=O)C(F)(F)F)c4)cc3)CC2)C1` [ABT-263] was tested. Which “cytotoxicity of cytarabine-treated U937 cells” value [1] did it give?
**A.** Its value is “enhanced the cytotoxicity”.

**Q.** `CC(C)C[C@H](NC(=O)[C@H](Cc1ccccc1)NC(=O)c1cnccn1)B(O)O` [bortezomib] was tested. Which “cytotoxicity of cytarabine-treated U937 cells” value [1] did it give?
**A.** Its value is “enhanced the cytotoxicity”.

**Q.** How did the cell proliferation [3] turn out when “5′-UCAGGACAAACAGGUUUCCCGAGUU-3′ [TIFA siRNA]” was run?
**A.** Its cell proliferation is “inhibited”.

**Q.** What about the “elevation of activated NF-κB, phosphorylated IκK and IκB, and NF-κB-driven luciferase activity” value ([4]; overexpression of Aurora A (293T) or TNF-α treatment (U937), silencing of TIFA) of the same molecule?
**A.** Its value is “negated”.

**Q.** And the “growth of AML cell lines” value [5]?
**A.** Its value is “attenuates the growth”.

**Q.** And the “growth of AML PBMCs” value ([6]; WST-1 time course)?
**A.** Its value is “growth retardation”.

**Q.** And the “chemosensitivities of patient-derived PBMCs” value ([6]; chemo drug treatments, WST-1)?
**A.** The value was “consistently promoted chemosensitivities”.

**Q.** Which “fold change of cytotoxicity (cytotoxicity of TIFA silencing/cytotoxicity of non-silencing)” value [7] does the source give for `COc1cc([C@@H]2c3cc4c(cc3[C@@H](O[C@@H]3O[C@@H]5CO[C@@H](C)O[C@H]5[C@H](O)[C@H]3O)[C@H]3COC(=O)[C@H]23)OCO4)cc(OC)c1O` [Etoposide, etoposide] here?
**A.** The value was 1.64 fold changes.

**Q.** And the “fold change of cytotoxicity (cytotoxicity of TIFA silencing/cytotoxicity of non-silencing)” value [8]?
**A.** Its value is 1.29 fold changes.

**Q.** And the “decrease in IC50 of the chemo drug under TIFA silencing” value [9]?
**A.** The value was “ca. 50%”.

**Q.** And the “fold change of cytotoxicity (cytotoxicity of TIFA silencing/cytotoxicity of non-silencing)” value [10]?
**A.** The value was 1.15 fold changes.

**Q.** What about the “fold change of cytotoxicity (cytotoxicity of TIFA silencing/cytotoxicity of non-silencing)” value [11] of the same molecule?
**A.** Its value is 1.27 fold changes.

**Q.** What about the “fold change of cytotoxicity (cytotoxicity of TIFA silencing/cytotoxicity of non-silencing)” value [12] of the same molecule?
**A.** The value was 1.59 fold changes.

**Q.** What about the “fold change of cytotoxicity (cytotoxicity of TIFA silencing/cytotoxicity of non-silencing)” value [13] of the same molecule?
**A.** Its value is 1.61 fold changes.

**Q.** And the “fold change of cytotoxicity (cytotoxicity of TIFA silencing/cytotoxicity of non-silencing)” value [14]?
**A.** The value was 2.28 fold changes.

**Q.** And the “fold change of cytotoxicity (cytotoxicity of TIFA silencing/cytotoxicity of non-silencing)” value [15]?
**A.** The value was 1.79 fold changes.

**Q.** What about the “fold change of cytotoxicity (cytotoxicity of TIFA silencing/cytotoxicity of non-silencing)” value [16] of the same molecule?
**A.** The value was 1.46 fold changes.

**Q.** What about the “fold change of cytotoxicity (cytotoxicity of TIFA silencing/cytotoxicity of non-silencing)” value [17] of the same molecule?
**A.** The value was 1.48 fold changes.

**Q.** And the “fold change of cytotoxicity (cytotoxicity of TIFA silencing/cytotoxicity of non-silencing)” value [18]?
**A.** The value was 1.77 fold changes.

**Q.** And the “fold change of cytotoxicity (cytotoxicity of TIFA silencing/cytotoxicity of non-silencing)” value [2]?
**A.** Its value is 1.30 fold changes.

**Q.** What does the source list for `Nc1ccn([C@@H]2O[C@H](CO)[C@@H](O)[C@@H]2O)c(=O)n1` [cytarabine]?
**A.** decrease in IC50 of the chemo drug under TIFA silencing [9]: ca. 50%; secretion of IL-6 [19]: suppressed; secretion of TNF-α, CXCL-1, and IL-8 [19]: promoted

**Q.** With `Cc1cc(Nc2cc(N3CCN(C)CC3)nc(Sc3ccc(NC(=O)C4CC4)cc3)n2)n[nH]1` [VX680] as the molecule, how does the cell proliferation [3] read?
**A.** Its cell proliferation is “inhibited”.

**Q.** `CC(=O)[C@]1(O)Cc2c(O)c3c(c(O)c2[C@@H](O[C@H]2C[C@H](N)[C@H](O)[C@H](C)O2)C1)C(=O)c1ccccc1C3=O` [idarubicin] was tested. Which “decrease in IC50 of the chemo drug under TIFA silencing” value [9] did it give?
**A.** The value was “ca. 50%”.

B1: F1F2: dominant-negative TIFA fragment: Thr9 segment (F1) plus dimerization-core (F2), Myc-tagged, expressed by retroviral transduction (protein)
chain: MTSFEDADTEETVTCLQMTVYHPGQLQCGIFQSISFNREKLPSSEVVKFGRNSNICHYTFQDKQVSRVQFSLQLFKKFNSSVLSFEIKNMSKKTNLIVDSREL
modifications: left off: small tags and cut ends
notes: dominant-negative TIFA fragment: Thr9 segment (F1) plus dimerization-core (F2), Myc-tagged, expressed by retroviral transduction
**Q.** With B1 as the molecule, how does the “TNF-α-dependent NF-κB activation and elevations of NF-κB signaling factors” value [4] read?
**A.** Its value is “attenuated”.

**Q.** What about the “pull down of endogenous TIFA” value [20] of the same molecule?
**A.** Its value is “able to pull down endogenous TIFA”.

B2: F2F3: dominant-negative TIFA fragment: dimerization-core (F2) plus TRAF6/TRAF2 interacting segment (F3), Myc-tagged, expressed by retroviral transduction (protein)
chain: VVKFGRNSNICHYTFQDKQVSRVQFSLQLFKKFNSSVLSFEIKNMSKKTNLIVDSRELGYLNKMDLPYRCMVRFGEYQFLMEKEDGESLEFFETQFILSPRSLLQENNWPPHRPIPEYGTYSLCSSQSSSPTEMDENES
modifications: left off: small tags and cut ends
**Q.** With B2 as the molecule, how does the “TNF-α-dependent NF-κB activation and elevations of NF-κB signaling factors” value [4] read?
**A.** Its value is “attenuated”.

**Q.** And the “pull down of endogenous TIFA” value [20]?
**A.** Its value is “able to pull down endogenous TIFA”.
